From paper PMC11861906, “Structural basis for lipid-mediated activation of G protein-coupled receptor GPR55” (Nature Communications, 2025)

Experiments:
Format in all cases: cell-based
[1] = target: wt GPR55 (Gα13 mutant R331D) (Homo sapiens, UniProt Q9Y2T6); test: BRET² G protein dissociation assay, wt GPR55 with Gα13-R331D; settings: for BRET2 response, Mean (plotted, Fig. S4): GPR55-wt-G13-R331D
Experimental: (§1) Next, we used a mutagenesis approach to further explore the Gα13 selectivity of GPR55. The striking difference in the sequence between the two G protein subtypes guided the design of four Gα13 mutants that are in close contact with GPR55 by replacing the residues with the respective Gα12 amino acid (L374^-4I, Q373^-5D, H368^-10Q, R331D). The mutants were tested individually for their ability to be activated by GPR55 using the same G protein dissociation assay. […] The single Gα13-mutants affected the potency of LPI and ML184 only to a minor extend compared to wt Gα13 (Supplementary Table S3).
(§2) G protein dissociation assays were performed according to the original protocols of the TRUPATH BRET² assay[47],[87] but with subtle modifications as previously described[61],[88],[89]. All reagents and cells were obtained from Thermo Fisher Scientific unless indicated otherwise. The coding sequences for the G protein biosensors[47] (Gα12-Rluc8, Gα13-Rluc8, wt Gβ3, and Gγ9-GFP), the wt GPR55, the construct used for cryo-EM (with GFP bearing a G67A mutation to disrupt fluorescence properties[48] for BRET² assays), GPR55 binding pocket mutants (G152^4.56F, G152^4.56W, N171^ECL2Q, N171^ECL2A, T176^5.33A, R253^6.62A), and the wt TBXA2R were codon-optimized for Homo sapiens, gene-synthesized, and sub-cloned into pcDNA^TM3.1(+) between NheI and HindIII restriction sites by GeneArt (Thermo Fisher Scientific). […] Freshly grown cells were washed with Dulbecco’s Balanced Salt Solution (DPBS, cat. #14200075) and detached using trypsin-ethylenediaminetetraacetic acid (trypsin-EDTA) (cat. #25300-062). Then, the cells were reconstituted to 500,000 cells per mL with fresh medium, and 1,000,000 cells were seeded into each well of a 6-well plate. After 3 h incubation at 37 °C and 5% CO2, adherent cells were transfected with 600 ng DNA (1:1:1:1 ratio of plasmid DNA for GPR55, wt Gβ3, Gγ9-GFP, and Gα12-Rluc8 or Gα13-Rluc8). Plasmid DNA was mixed with 1.5 µL Lipofectamine^TM 2000 (cat. #11668027) in Opti-MEM^TM medium (cat. #31985062) and incubated for 20 min. Then, the mixture was added to each well of the 6-well plate following 24 h incubation at 37 °C and 5% CO2. Transfected cells were washed with DPBS, detached using EDTA (Versene, cat. #15040066), and reconstituted into fresh medium at 500,000 cells mL^−1. From this suspension, 50,000 cells were seeded into each well of a white-bottom 96-well plate (Nunc^TM MicroWell^TM 96 wells, cat. #136101) following overnight incubation at 37 °C and 5% CO2. Then, the adherent cells were washed with assay medium [Hank’s balanced salt solution (HBSS, cat. #14065056) plus 20 mM HEPES pH 7.4 (cat. #15630056)] and finally reconstituted into 50 µL of the same medium. […] Methoxy e-Coelenterazine was used as luciferase substrate (Prolume Purple, NanoLight Technology, cat. #369), reconstituted at 1 mM in methanol and diluted to 37.5 µM with assay buffer (7.5 µM final assay concentration). The assay was started by the addition of 20 µL luciferase substrate to each well of the assay plate using a Multidrop^TM Combi reagent dispenser (Thermo Fisher Scientific), followed by 5 min incubation at room temperature. Then, 30 µL of agonist dilutions or DMSO control was added (final DMSO concentration 1.5%), followed by an additional 5 min incubation at room temperature. BRET² measurements were performed with a PHERAstar® FSX microplate reader (BMG LABTECH) using a BRET² filter (donor emission 370–450 nm, acceptor emission 500–530 nm) at the maximum fluorescence gain of 3600. BRET² ratios were calculated by dividing GFP emission signals from Rluc8 emission counts.

[2] = target: wt GPR55 (Gα13 mutant L374I) (Homo sapiens, UniProt Q9Y2T6); test: BRET² G protein dissociation assay, wt GPR55 with Gα13-L374I; settings: for BRET2 response, Mean (plotted, Fig. S4): GPR55-wt-G13-L374I
wt GPR55 (Gα13 mutant L374I), sequence (Q9Y2T6 whole entry, stated change not applied): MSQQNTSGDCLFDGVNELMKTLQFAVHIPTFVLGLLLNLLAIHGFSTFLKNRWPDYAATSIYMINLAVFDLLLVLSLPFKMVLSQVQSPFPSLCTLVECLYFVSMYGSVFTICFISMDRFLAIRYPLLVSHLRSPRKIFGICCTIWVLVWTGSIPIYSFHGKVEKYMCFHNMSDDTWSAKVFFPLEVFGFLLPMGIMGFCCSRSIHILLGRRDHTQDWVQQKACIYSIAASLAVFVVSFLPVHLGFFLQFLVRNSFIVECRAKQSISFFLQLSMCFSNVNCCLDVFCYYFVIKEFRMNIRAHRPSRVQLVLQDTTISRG
wt GPR55 (Gα13 mutant L374I), sequence (Q14344 with tags, fused parts or gaps L374I partner): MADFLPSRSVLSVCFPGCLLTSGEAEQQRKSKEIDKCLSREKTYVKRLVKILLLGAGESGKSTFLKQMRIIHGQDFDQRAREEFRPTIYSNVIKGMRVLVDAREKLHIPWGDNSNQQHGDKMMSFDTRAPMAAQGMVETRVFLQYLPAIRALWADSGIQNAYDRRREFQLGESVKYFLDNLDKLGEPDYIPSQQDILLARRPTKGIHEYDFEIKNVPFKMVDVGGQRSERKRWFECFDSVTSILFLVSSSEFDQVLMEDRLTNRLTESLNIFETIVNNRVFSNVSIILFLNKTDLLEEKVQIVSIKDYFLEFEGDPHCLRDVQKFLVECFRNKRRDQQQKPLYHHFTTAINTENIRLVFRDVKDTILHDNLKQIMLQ
wt GPR55 (Gα13 mutant L374I), sequence (P16520 whole entry partner): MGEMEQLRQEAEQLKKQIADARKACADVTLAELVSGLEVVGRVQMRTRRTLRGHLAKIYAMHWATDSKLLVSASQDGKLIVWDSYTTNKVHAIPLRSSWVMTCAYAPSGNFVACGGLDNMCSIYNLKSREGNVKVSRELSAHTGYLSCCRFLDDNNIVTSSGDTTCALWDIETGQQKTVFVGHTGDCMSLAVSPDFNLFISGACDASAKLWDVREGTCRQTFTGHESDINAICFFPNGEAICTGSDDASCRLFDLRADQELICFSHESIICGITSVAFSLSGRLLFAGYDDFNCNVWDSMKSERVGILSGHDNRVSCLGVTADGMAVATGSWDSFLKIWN
wt GPR55 (Gα13 mutant L374I), sequence (O14610 1-66 partner limits assumed): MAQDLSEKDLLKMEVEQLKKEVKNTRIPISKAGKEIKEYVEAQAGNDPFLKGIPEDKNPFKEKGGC
Experimental: as §1, §2

[3] = target: wt GPR55 (Gα13 mutant H368Q) (Homo sapiens, UniProt Q9Y2T6); test: BRET² G protein dissociation assay, wt GPR55 with Gα13-H368Q; settings: for BRET2 response, Mean (plotted, Fig. S4): GPR55-wt-G13-H368Q
wt GPR55 (Gα13 mutant H368Q), sequence (Q9Y2T6 whole entry, stated change not applied): as the sequence (Q9Y2T6 whole entry, stated change not applied) above
wt GPR55 (Gα13 mutant H368Q), sequence (Q14344 with tags, fused parts or gaps H368Q partner): as the sequence (Q14344 with tags, fused parts or gaps L374I partner) above, with H368Q, I374L counted along it
wt GPR55 (Gα13 mutant H368Q), sequence (P16520 whole entry partner): as the sequence (P16520 whole entry partner) above
wt GPR55 (Gα13 mutant H368Q), sequence (O14610 1-66 partner limits assumed): as the sequence (O14610 1-66 partner limits assumed) above
Experimental: as §1, §2

[4] = target: wt GPR55 (Gα13 mutant Q373D) (Homo sapiens, UniProt Q9Y2T6); test: BRET² G protein dissociation assay, wt GPR55 with Gα13-Q373D; settings: for BRET2 response, Mean (plotted, Fig. S4): GPR55-wt-G13-Q373D
wt GPR55 (Gα13 mutant Q373D), sequence (Q9Y2T6 whole entry, stated change not applied): as the sequence (Q9Y2T6 whole entry, stated change not applied) above
wt GPR55 (Gα13 mutant Q373D), sequence (Q14344 with tags, fused parts or gaps Q373D partner): as the sequence (Q14344 with tags, fused parts or gaps L374I partner) above, with Q373D, I374L counted along it
wt GPR55 (Gα13 mutant Q373D), sequence (P16520 whole entry partner): as the sequence (P16520 whole entry partner) above
wt GPR55 (Gα13 mutant Q373D), sequence (O14610 1-66 partner limits assumed): as the sequence (O14610 1-66 partner limits assumed) above
Experimental: as §1, §2

wt GPR55 (Gα13 mutant R331D), sequence (Q9Y2T6 whole entry, stated change not applied): as the sequence (Q9Y2T6 whole entry, stated change not applied) above
wt GPR55 (Gα13 mutant R331D), sequence (Q14344 whole entry R331D partner): as the sequence (Q14344 with tags, fused parts or gaps L374I partner) above, with R331D, I374L counted along it
wt GPR55 (Gα13 mutant R331D), sequence (P16520 whole entry partner): as the sequence (P16520 whole entry partner) above
wt GPR55 (Gα13 mutant R331D), sequence (O14610 1-66 partner limits assumed): as the sequence (O14610 1-66 partner limits assumed) above

BRET2 response, Mean (plotted, Fig. S4) ([1]; concentration 300 pM): -0.00035 | BRET2 response, Mean (plotted, Fig. S4) ([1]; concentration 1e-9 M): -0.0002667 | BRET2 response, Mean (plotted, Fig. S4) ([1]; concentration 3e-9 M): -0.009133 | BRET2 response, Mean (plotted, Fig. S4) ([1]; concentration 1e-8 M): -0.02147 | BRET2 response, Mean (plotted, Fig. S4) ([1]; concentration 3e-8 M): -0.04232 | BRET2 response, Mean (plotted, Fig. S4) ([1]; concentration 1e-7 M): -0.06272 | BRET2 response, Mean (plotted, Fig. S4) ([1]; concentration 3e-7 M): -0.07305 | BRET2 response, Mean (plotted, Fig. S4) ([1]; concentration 1e-6 M): -0.07957 | BRET2 response, Mean (plotted, Fig. S4) ([1]; concentration 3e-6 M): -0.0831 | BRET2 response, Mean (plotted, Fig. S4) ([1]; concentration 1e-5 M): -0.08698 | BRET2 response, Mean (plotted, Fig. S4) ([1]; concentration 3e-5 M): -0.08977 | EC50 ([1]; wt GPR55, Gα13-R331D): 33.9 nM | Emax at 30 µM ([1]; wt GPR55, Gα13-R331D, 30 µM ligand, same normalization, read-out: Efficacy ± SEM (%)): 89 ± 3% | BRET2 response, Mean (plotted, Fig. S4) ([2]; concentration 300 pM): -0.00585 | BRET2 response, Mean (plotted, Fig. S4) ([2]; concentration 1e-9 M): -0.001933 | BRET2 response, Mean (plotted, Fig. S4) ([2]; concentration 3e-9 M): -0.00955 | BRET2 response, Mean (plotted, Fig. S4) ([2]; concentration 1e-8 M): -0.02387 | BRET2 response, Mean (plotted, Fig. S4) ([2]; concentration 3e-8 M): -0.04258 | BRET2 response, Mean (plotted, Fig. S4) ([2]; concentration 1e-7 M): -0.06613 | BRET2 response, Mean (plotted, Fig. S4) ([2]; concentration 3e-7 M): -0.07745 | BRET2 response, Mean (plotted, Fig. S4) ([2]; concentration 1e-6 M): -0.0833 | BRET2 response, Mean (plotted, Fig. S4) ([2]; concentration 3e-6 M): -0.08843 | BRET2 response, Mean (plotted, Fig. S4) ([2]; concentration 1e-5 M): -0.09448 | BRET2 response, Mean (plotted, Fig. S4) ([2]; concentration 3e-5 M): -0.09637 | EC50 ([2]; wt GPR55, Gα13-L374I): 36.3 nM | Emax at 30 µM ([2]; wt GPR55, Gα13-L374I, 30 µM ligand, same normalization, read-out: Efficacy ± SEM (%)): 84 ± 1% | BRET2 response, Mean (plotted, Fig. S4) ([3]; concentration 300 pM): -0.005683 | BRET2 response, Mean (plotted, Fig. S4) ([3]; concentration 1e-9 M): -0.005417 | BRET2 response, Mean (plotted, Fig. S4) ([3]; concentration 3e-9 M): -0.01235 | BRET2 response, Mean (plotted, Fig. S4) ([3]; concentration 1e-8 M): -0.02205 | BRET2 response, Mean (plotted, Fig. S4) ([3]; concentration 3e-8 M): -0.02877 | BRET2 response, Mean (plotted, Fig. S4) ([3]; concentration 1e-7 M): -0.03593 | BRET2 response, Mean (plotted, Fig. S4) ([3]; concentration 3e-7 M): -0.04192 | BRET2 response, Mean (plotted, Fig. S4) ([3]; concentration 1e-6 M): -0.04487 | BRET2 response, Mean (plotted, Fig. S4) ([3]; concentration 3e-6 M): -0.0483 | BRET2 response, Mean (plotted, Fig. S4) ([3]; concentration 1e-5 M): -0.05252 | BRET2 response, Mean (plotted, Fig. S4) ([3]; concentration 3e-5 M): -0.05477 | EC50 ([3]; wt GPR55, Gα13-H368Q): 29.5 nM | Emax at 30 µM ([3]; wt GPR55, Gα13-H368Q, 30 µM ligand, same normalization, read-out: Efficacy ± SEM (%)): 101 ± 4% | BRET2 response, Mean (plotted, Fig. S4) ([4]; concentration 300 pM): -0.0016 | BRET2 response, Mean (plotted, Fig. S4) ([4]; concentration 1e-9 M): -0.008467 | BRET2 response, Mean (plotted, Fig. S4) ([4]; concentration 3e-9 M): -0.01797 | BRET2 response, Mean (plotted, Fig. S4) ([4]; concentration 1e-8 M): -0.03595 | BRET2 response, Mean (plotted, Fig. S4) ([4]; concentration 3e-8 M): -0.05377 | BRET2 response, Mean (plotted, Fig. S4) ([4]; concentration 1e-7 M): -0.06678 | BRET2 response, Mean (plotted, Fig. S4) ([4]; concentration 3e-7 M): -0.07328 | BRET2 response, Mean (plotted, Fig. S4) ([4]; concentration 1e-6 M): -0.07808 | BRET2 response, Mean (plotted, Fig. S4) ([4]; concentration 3e-6 M): -0.08238 | BRET2 response, Mean (plotted, Fig. S4) ([4]; concentration 1e-5 M): -0.08622 | BRET2 response, Mean (plotted, Fig. S4) ([4]; concentration 3e-5 M): -0.08798 | EC50 ([4]; wt GPR55, Gα13-Q373D): 17 nM | Emax at 30 µM ([4]; wt GPR55, Gα13-Q373D, 30 µM ligand, same normalization, read-out: Efficacy ± SEM (%)): 94 ± 7%
SMILES: Cc1cccc(N2CCN(C(=O)c3cc(S(=O)(=O)N(C)C)ccc3N3CCCC3)CC2)c1C [ML184, 3-[[4-(2,3-dimethylphenyl)-1-piperazinyl]carbonyl]-N,N-dimethyl-4-(1-pyrrolidinyl)benzenesulfonamide]
